The results in this text go back to patent US20230151003A1, “COMPOUNDS AND METHODS OF USE” (Exelixis, Inc., priority 2020, published 2023).

Assay [1] deals with Met (Homo sapiens, UniProt P08581). Briefly: Met autophosphorylation ELISA in PC-3 cells. Type of assay: cell-based. Further details: endogenous in cells; host or cells: PC-3 prostate cancer cells (ATCC #CRL-1435). The following applies: Table 3 Cellular Activities, HGF-stimulated, phospho-Met ELISA, read-out: c-Met IC50. Put shortly:
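IC50 derived by 4-parameter logistic regression of phospho-Met (panTyr) sandwich ELISA signal, scaled between HGF-stimulated DMSO and reference-inhibitor lysates. PC-3 cells, serum-starved 3 h, received an 8-point compound series (0.3% DMSO) for 1 h before 10 min stimulation with 100 ng/mL human HGF.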

Assay [2] concerns the target T1, AXL (Homo sapiens, UniProt P30530).
T1 construct: endogenous in cells; host or cells: A-172 glioblastoma cells (ATCC #CRL-1620)
T1 sequence (P30530 26-894): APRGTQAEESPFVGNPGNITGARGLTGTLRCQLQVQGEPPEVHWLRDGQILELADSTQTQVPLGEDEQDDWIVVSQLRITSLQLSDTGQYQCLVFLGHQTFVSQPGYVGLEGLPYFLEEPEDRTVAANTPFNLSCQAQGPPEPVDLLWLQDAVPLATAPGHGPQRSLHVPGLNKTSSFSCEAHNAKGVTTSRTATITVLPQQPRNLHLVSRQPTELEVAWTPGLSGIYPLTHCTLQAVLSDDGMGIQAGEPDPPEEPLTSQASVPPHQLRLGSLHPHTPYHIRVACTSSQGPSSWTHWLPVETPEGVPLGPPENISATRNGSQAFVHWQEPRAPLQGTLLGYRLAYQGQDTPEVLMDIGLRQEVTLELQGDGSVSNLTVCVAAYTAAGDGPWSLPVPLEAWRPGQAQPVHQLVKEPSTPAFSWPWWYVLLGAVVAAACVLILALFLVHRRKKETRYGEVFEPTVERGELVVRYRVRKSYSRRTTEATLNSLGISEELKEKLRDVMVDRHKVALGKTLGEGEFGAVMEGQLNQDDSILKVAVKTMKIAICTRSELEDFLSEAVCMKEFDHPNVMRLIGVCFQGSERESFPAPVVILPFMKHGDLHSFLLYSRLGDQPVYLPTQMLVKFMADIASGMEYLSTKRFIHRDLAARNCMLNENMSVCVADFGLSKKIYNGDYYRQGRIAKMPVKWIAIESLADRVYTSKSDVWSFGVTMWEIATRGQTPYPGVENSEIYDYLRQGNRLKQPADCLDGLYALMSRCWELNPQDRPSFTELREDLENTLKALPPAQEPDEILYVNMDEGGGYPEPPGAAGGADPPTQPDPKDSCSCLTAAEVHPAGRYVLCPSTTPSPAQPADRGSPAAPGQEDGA
The experiment in a line: AXL autophosphorylation ELISA in A-172 cells. The note with it: Table 3 Cellular Activities, Gas6-stimulated, phospho-AXL ELISA. Type of assay: cell-based. The gist of the method:
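Phospho-AXL in lysates measured by ELISA after Gas6 stimulation (1 μg/mL, 15 min) of A-172 cells pre-incubated 1 h with an 8-point compound dilution series in 0.3% DMSO after 24 h serum starvation. IC50 by 4-parameter logistic fit, with DMSO-treated and reference-inhibitor wells as 100% and 0% activity.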

Some results are limits rather than exact numbers.

Chain of Met (P08581 25-1390): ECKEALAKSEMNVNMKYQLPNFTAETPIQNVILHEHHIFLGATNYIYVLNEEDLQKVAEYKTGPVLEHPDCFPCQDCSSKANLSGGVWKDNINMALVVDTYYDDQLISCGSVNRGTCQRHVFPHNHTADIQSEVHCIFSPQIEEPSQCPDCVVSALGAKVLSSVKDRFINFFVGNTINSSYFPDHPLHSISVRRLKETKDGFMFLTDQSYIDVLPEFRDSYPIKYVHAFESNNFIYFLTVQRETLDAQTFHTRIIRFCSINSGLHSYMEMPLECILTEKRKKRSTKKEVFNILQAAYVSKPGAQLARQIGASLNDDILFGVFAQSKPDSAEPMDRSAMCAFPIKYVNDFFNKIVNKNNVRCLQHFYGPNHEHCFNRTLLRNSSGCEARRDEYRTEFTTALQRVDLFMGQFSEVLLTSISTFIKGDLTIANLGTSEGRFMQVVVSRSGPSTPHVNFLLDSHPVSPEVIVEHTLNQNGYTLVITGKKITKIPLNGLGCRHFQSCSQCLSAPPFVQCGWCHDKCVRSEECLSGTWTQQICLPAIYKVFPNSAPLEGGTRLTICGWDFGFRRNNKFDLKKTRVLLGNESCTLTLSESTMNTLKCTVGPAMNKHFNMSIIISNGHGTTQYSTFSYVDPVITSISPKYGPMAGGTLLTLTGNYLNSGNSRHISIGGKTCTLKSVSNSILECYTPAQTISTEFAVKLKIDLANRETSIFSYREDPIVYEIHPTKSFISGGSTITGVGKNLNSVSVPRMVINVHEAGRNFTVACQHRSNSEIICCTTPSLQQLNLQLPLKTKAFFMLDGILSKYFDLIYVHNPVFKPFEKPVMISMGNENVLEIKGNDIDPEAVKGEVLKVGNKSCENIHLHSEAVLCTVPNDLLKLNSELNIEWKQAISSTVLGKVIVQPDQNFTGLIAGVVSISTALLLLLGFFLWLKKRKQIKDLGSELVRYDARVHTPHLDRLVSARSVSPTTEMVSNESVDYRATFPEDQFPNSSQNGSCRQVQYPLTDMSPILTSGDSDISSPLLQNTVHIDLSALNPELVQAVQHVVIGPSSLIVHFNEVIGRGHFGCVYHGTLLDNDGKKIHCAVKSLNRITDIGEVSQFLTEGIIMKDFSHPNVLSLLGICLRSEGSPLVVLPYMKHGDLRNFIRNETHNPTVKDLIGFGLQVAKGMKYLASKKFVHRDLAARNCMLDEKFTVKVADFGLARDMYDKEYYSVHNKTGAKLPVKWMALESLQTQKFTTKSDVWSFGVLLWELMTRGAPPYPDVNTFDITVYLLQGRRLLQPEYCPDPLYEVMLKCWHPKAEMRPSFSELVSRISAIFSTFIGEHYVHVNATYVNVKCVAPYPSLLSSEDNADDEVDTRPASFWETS

`COc1cnc2c(Oc3ccc(NC(=O)c4cnc(C)c(-c5ccoc5)c4O)cc3F)ccnc2c1` [Compound 99, N-[3-Fluoro-4-[(7-methoxy-1,5-naphthyridin-4-yl)oxy]phenyl]-5-(3-furyl)-4-hydroxy-6-methyl-pyridine-3-carboxamide]: the IC50 in assay [1] and in assay [2] was not above 100 nM each time.
Turning to `COc1cnc2c(Oc3ccc(NC(=O)c4cnc(C)c(-c5cccs5)c4O)cc3F)ccnc2c1` [Compound 100, N-[3-Fluoro-4-[(7-methoxy-1,5-naphthyridin-4-yl)oxy]phenyl]-4-hydroxy-6-methyl-5-(2-thienyl)pyridine-3-carboxamide], the IC50 in assay [1] and in assay [2] was not above 100 nM in each case.
Consider `COc1cnc2c(Oc3ccc(NC(=O)c4cnc(C)c(-c5ccc(C)s5)c4O)cc3F)ccnc2c1` [Compound 101, N-[3-Fluoro-4-[(7-methoxy-1,5-naphthyridin-4-yl)oxy]phenyl]-4-hydroxy-6-methyl-5-(5-methyl-2-thienyl) pyridine-3-carboxamide], for which the IC50 in assay [1] and in assay [2] was not above 100 nM throughout.
`COc1cnc2c(Oc3ccc(NC(=O)c4cnc(C)c(-c5cc(C)cs5)c4O)cc3F)ccnc2c1` [Compound 102, N-[3-Fluoro-4-[(7-methoxy-1,5-naphthyridin-4-yl)oxy]phenyl]-4-hydroxy-6-methyl-5-(4-methyl-2-thienyl) pyridine-3-carboxamide]: the IC50 in assay [1] and in assay [2] was not above 100 nM in each case.
For `COc1cc2nccc(Oc3ccc(NC(=O)c4cnc(C)c(-c5sccc5C)c4O)cc3F)c2nc1OC` [Compound 103, N-[4-[(6,7-Dimethoxy-1,5-naphthyridin-4-yl)oxy]-3-fluoro-phenyl]-4-hydroxy-6-methyl-5-(3-methyl-2-thienyl) pyridine-3-carboxamide], the IC50 in assay [1] and in assay [2] was not above 100 nM each time.
Take `COc1cc2nccc(Oc3ccc(NC(=O)c4cnc(C)c(-c5ccnn5C)c4O)cc3F)c2nc1OC` [Compound 104]: the IC50 in assay [1] and in assay [2] was not above 100 nM in each case.
In the case of `COc1cc2nccc(Oc3ccc(NC(=O)c4cnc(C)c(-c5cc(C(F)(F)F)nn5C)c4O)cc3F)c2nc1OC` [Compound 105], the IC50 was 100 to 300 nM in assay [1] and not above 100 nM in assay [2].
For `COc1cc2nccc(Oc3ccc(NC(=O)c4c(C)nc(C)c(-c5ccsc5)c4O)cc3F)c2nc1OC` [Compound 106], in that order: not above 100 nM and not above 100 nM.
For `COc1cc2nccc(Oc3ccc(NC(=O)c4c(C)nc(C)c(-c5cccs5)c4O)cc3F)c2nc1OC` [Compound 107], in that order: not above 100 nM and not above 100 nM.
As for `COc1cc2nccc(Oc3ccc(NC(=O)c4c(C)nc(C)c(-c5ccnn5C)c4O)cc3F)c2nc1OC` [Compound 108, N-[4-[(6,7-Dimethoxy-1,5-naphthyridin-4-yl)oxy]-3-fluoro-phenyl]-4-hydroxy-2,6-dimethyl-5-(2-methylpyrazol-3-yl) pyridine-3-carboxamide], the IC50 in assay [1] and in assay [2] was not above 100 nM throughout.
For `COc1cc2nccc(Oc3ccc(NC(=O)c4c(C)nc(C)c(-c5cc(C)nn5C)c4O)cc3F)c2nc1OC` [Compound 109, N-[4-[(6,7-Dimethoxy-1,5-naphthyridin-4-yl)oxy]-3-fluoro-phenyl]-5-(2,5-dimethylpyrazol-3-yl)-4-hydroxy-2,6-dimethyl-pyridine-3-carboxamide], the IC50 in assay [1] and in assay [2] was not above 100 nM in each case.
`COc1cc2nccc(Oc3ccc(NC(=O)c4c(C)nc(C)c(-c5ccc(C)o5)c4O)cc3F)c2nc1OC` [Compound 110, N-[4-[(6,7-Dimethoxy-1,5-naphthyridin-4-yl)oxy]-3-fluoro-phenyl]-4-hydroxy-2,6-dimethyl-5-(5-methyl-2-furyl)pyridine-3-carboxamide]: the IC50 in assay [1] and in assay [2] was not above 100 nM throughout.
